According to BindingDB's records for doi:10.1016/j.bmcl.2012.07.086 (Shandong Academy of Sciences, 2012):

Biological target: T1, Aminopeptidase N (Sus scrofa, UniProt P15145)
T1 sequence (P15145 whole entry): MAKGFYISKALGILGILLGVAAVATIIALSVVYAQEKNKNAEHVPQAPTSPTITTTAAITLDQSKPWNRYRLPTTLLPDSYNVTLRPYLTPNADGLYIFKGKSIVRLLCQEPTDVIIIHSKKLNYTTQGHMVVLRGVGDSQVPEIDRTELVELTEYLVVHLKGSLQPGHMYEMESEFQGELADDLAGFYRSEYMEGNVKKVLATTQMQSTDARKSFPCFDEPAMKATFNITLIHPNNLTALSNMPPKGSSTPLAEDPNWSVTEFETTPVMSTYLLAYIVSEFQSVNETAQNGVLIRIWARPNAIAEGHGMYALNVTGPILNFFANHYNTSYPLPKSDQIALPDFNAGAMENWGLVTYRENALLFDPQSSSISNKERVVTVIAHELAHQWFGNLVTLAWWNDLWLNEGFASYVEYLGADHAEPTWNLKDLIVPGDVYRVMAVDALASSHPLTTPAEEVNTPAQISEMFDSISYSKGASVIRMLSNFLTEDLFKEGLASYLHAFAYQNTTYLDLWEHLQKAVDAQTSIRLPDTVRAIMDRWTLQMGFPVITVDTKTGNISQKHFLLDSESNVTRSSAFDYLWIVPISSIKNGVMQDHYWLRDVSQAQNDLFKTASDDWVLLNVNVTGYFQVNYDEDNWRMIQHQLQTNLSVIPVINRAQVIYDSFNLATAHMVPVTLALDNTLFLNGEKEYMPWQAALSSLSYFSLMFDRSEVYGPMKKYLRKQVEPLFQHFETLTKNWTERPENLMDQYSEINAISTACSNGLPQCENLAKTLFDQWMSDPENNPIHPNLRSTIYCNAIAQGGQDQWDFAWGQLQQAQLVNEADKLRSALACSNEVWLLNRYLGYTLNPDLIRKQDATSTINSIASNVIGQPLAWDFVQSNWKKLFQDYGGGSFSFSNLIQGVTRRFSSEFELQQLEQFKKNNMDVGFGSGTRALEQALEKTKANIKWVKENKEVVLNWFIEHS
Experiment: Inhibition of porcine kidney microsome aminopeptidase using L-Leu-p-nitroanilide as substrate after 30 mins

| SMILES | IC50 [µM] |
| --- | --- |
| Cc1cc(C/N=N/c2ccc([N+](=O)[O-])cc2[N+](=O)[O-])c(C)n1-c1ccc(S(N)(=O)=O)cc1 | > 1000 |
| O=C1NC(=O)C(N=Nc2cc([N+](=O)[O-])ccc2O)C(=O)N1 | > 1000 |
